From patent US20090311344A1, “Dosing Regimen” (priority 2008, published 2009)
Entries after “also recorded” stand apart in the source; their conditions may differ.

Tests used:
platelet count [1] = test: platelet count in the rat after a single i.v. dose; type: in vivo; conditions: single i.v. dose 30 to 300 μg/kg
Description: The TPO mimetic peptide compound has an estimated EC50 of approximately 5 pM (0.2 ng/mL) in a human TPO (huTPO) receptor assay in vitro and stimulates megakaryocyte lineage specific growth and differentiation in vivo.

hemoglobin = test: Multiple dose study in cancer subjects receiving platinum-based chemotherapy: hemoglobin; type: in vivo, human
platelet count [2] = test: Single dose study in healthy subjects: platelets, megakaryocyte ploidy, progenitor cells; type: in vivo, human
Description: See, e.g., U.S. patent application Ser. No. 11/354,065, filed Feb. 14, 2006, the entire contents of which are incorporated herein by reference.

Methoxypolyethyleneglycol20000-propionyl-L-Isoleucyl-L-Glutamyl-Glycyl-L-Prolyl-L-Threonyl-L-Leucyl-L-Arginyl-L-Glutaminyl-L-2-Naphthylalanyl-L-Leucyl-L-Alanyl-L-Alanyl-L-Arginyl-Sarcosyl-Ne-(methoxypolyethyleneglycol20000-propionyl-L-Isoleucyl-L-Glutamyl-Glycyl-L-Prolyl-L-Threonyl-L-Leucyl-L-Arginyl-L-Glutaminyl-L-2-Naphthylalanyl-L-Leucyl-L-Alanyl-L-Alanyl-L-Arginyl-Sarcosyl-)-Lysinamide [TPO mimetic peptide compound]
platelet count (platelet count [1]): increased platelet count
time at which platelet count returned to baseline (platelet count [1]): 12 days
time at which the platelet count increase was maximal (platelet count [1]): 6 days
hemoglobin as compared with placebo (hemoglobin; 2.25 and 3 μg/kg doses): trends for preservation of hemoglobin
Change From Baseline in Hemoglobin, Diff of LS Mean (SE) vs Placebo (hemoglobin; Day 42, 1.5 μg/kg): 0.54 (0.63)
Change From Baseline in Hemoglobin, Diff of LS Mean (SE) vs Placebo (hemoglobin; Day 42, 3.0 μg/kg): 1.00 (0.61)
Change From Baseline in Hemoglobin, LS Mean (SE) (hemoglobin; Day 42, 3.0 μg/kg): −1.16 (0.47)
Change From Baseline in Hemoglobin, Diff of LS Mean (SE) vs Placebo (hemoglobin; Day 63, 1.5 μg/kg): −0.75 (0.90)
Change From Baseline in Hemoglobin, LS Mean (SE) (hemoglobin; Day 63, 1.5 μg/kg): −2.98 (0.70)
Change From Baseline in Hemoglobin, Diff of LS Mean (SE) vs Placebo (hemoglobin; Day 63, 2.25 μg/kg): 0.68 (0.83)
Change From Baseline in Hemoglobin, LS Mean (SE) (hemoglobin; Day 63, 2.25 μg/kg): −1.55 (0.61)
Change From Baseline in Hemoglobin, Diff of LS Mean (SE) vs Placebo (hemoglobin; Day 63, 3.0 μg/kg): 0.79 (0.83)
Change From Baseline in Hemoglobin, LS Mean (SE) (hemoglobin; Day 63, 3.0 μg/kg): −1.44 (0.61)
Change From Baseline in Hemoglobin, Diff of LS Mean (SE) vs Placebo (hemoglobin; Day 84, 1.5 μg/kg): 0.05 (0.73)
Change From Baseline in Hemoglobin, LS Mean (SE) (hemoglobin; Day 84, 1.5 μg/kg): −1.88 (0.55)
Change From Baseline in Hemoglobin, Diff of LS Mean (SE) vs Placebo (hemoglobin; Day 84, 2.25 μg/kg): 0.37 (0.77)
Change From Baseline in Hemoglobin, LS Mean (SE) (hemoglobin; Day 84, 2.25 μg/kg): −1.56 (0.61)
Change From Baseline in Hemoglobin, Diff of LS Mean (SE) vs Placebo (hemoglobin; Day 84, 3.0 μg/kg): 1.57 (0.77)
Change From Baseline in Hemoglobin, LS Mean (SE) (hemoglobin; Day 84, 3.0 μg/kg): −0.36 (0.61)
change in hemoglobin levels from baseline to the end of Cycle 2 (Day 42) and beyond (hemoglobin; preliminary evaluation): dose-related trend for preservation of hemoglobin
mean platelet count (platelet count [2]; healthy male subjects, single i.v. administration): dose-dependently increased; also recorded: dose dependent, nonlinear increase
elevated platelet counts, increase from baseline (platelet count [2]; healthy subjects, 3.0 μg/kg dose): ≥ 3 fold
mean number of CD62P+ platelets (platelet count [2]; healthy subjects, 2 highest doses): appeared to increase
mean megakaryocyte ploidy (platelet count [2]; healthy subjects, doses of 1.5 μg/kg and above): increased compared with placebo
mean numbers of hematopoietic progenitor cells (BFU-E and peripheral CD34+ cells) (platelet count [2]; healthy subjects, highest dose): increased compared with placebo; also recorded: increased mean numbers of hematopoietic progenitor cells
